Test results from PubChem BioAssay AID1745860.

Target: Sodium-dependent noradrenaline transporter (Homo sapiens) (UniProt P23975)
Test: NET transport inhibition via TRACT readout – HEK293 JumpIn overexpressing cells, impedance, dose response (AID 1745860)
Details: HEK293 JumpIn SLC6A2 OE

Chain of Sodium-dependent noradrenaline transporter (Homo sapiens) (P23975 whole entry, looked up): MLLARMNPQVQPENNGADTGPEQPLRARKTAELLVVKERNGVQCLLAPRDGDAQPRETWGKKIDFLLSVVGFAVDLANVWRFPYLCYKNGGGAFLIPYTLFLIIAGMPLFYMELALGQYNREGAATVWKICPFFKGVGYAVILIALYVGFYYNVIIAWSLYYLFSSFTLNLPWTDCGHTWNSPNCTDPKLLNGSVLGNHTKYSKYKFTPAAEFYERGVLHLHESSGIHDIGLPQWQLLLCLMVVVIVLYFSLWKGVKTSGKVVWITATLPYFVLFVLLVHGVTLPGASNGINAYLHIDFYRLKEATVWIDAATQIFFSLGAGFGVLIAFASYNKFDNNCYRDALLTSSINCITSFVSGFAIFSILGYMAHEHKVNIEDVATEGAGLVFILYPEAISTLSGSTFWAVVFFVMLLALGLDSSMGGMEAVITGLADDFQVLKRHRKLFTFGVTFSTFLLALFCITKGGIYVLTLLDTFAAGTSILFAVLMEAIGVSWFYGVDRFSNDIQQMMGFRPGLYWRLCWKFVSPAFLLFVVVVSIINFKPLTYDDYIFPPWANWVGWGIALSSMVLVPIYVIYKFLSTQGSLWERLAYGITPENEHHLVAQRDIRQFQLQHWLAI

CNC[C@H](O)c1ccc(O)c(O)c1
IC50: 4 µM
